Experimental findings from PubChem BioAssay AID1117319 (Southern Research Institute, 2015) are described below.

Molecules are shown by their SMILES. Records with an inconclusive call do not appear.

In the assay the target is Virion infectivity factor (Human immunodeficiency virus type 1 group M subtype B (isolate BH10)) + Virion infectivity factor (Human immunodeficiency virus type 1 group M subtype B (isolate BRU/LAI)) + Virion infectivity factor (Human immunodeficiency virus type 1 group M subtype B (isolate PCV12)) + Virion infectivity factor (Human immunodeficiency virus type 1 group M subtype B (isolate HXB2)) + DNA dC->dU-editing enzyme APOBEC-3G (Homo sapiens) (UniProt P69720+P69721+P69722+P69723+Q9HC16). Description: inhibitors of Vif binding to APOBEC3G peptide, primary screen, biochemical, TR-FRET, GST-Vif 1-94, biotin-A3G peptide, dose response retest (AID 1117319).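 Note: Vif residues 1-94 fused to GST binding biotinylated APOBEC3G peptide 110-148.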 Background: In TR-FRET formats the signal depends on donor and acceptor labels being close together.
The IC50 is the concentration that inhibits the measured activity by half. Regarding `Cc1noc(C)c1S(=O)(=O)Nc1ccc2c(c1)C(=O)N([C@@H](C)CO)C[C@H](C)[C@@H](CN(C)Cc1ccc(C(F)(F)F)cc1)OCCCC[C@H](C)O2`, the IC50 is 96 µM.

For the compound `O=C1NC(=O)N(Cc2ccco2)C(=O)/C1=C/C=C/c1ccco1`, the IC50 was 0.91 µM.

Consider `C=CCn1c(O)c(C(CC)=Nc2ccc(N(C)C)cc2)c(=O)[nH]c1=O`, for which the IC50 was 57.6 µM. Next, `Cc1oc(-c2ccc(Cl)cc2)cc1-c1nn2c(-c3ccoc3C)nnc2s1`: 1.04 µM; `CCOC(=O)c1c(NC(=O)c2cccs2)sc(C)c1C`: 32.9 µM. For `O=[N+]([O-])c1cc(CN2CCN(c3cccc(C(F)(F)F)c3)CC2)c2cccnc2c1O`, the half-inhibitory concentration (IC50) is 8.68 µM.

Take `CCOC(=O)C1CCCN(c2ncnc3c2cnn3-c2ccc(Cl)cc2)C1` (stereo unspecified): the IC50 was 36 µM. To `Cc1nc2cc(-c3ccsc3-n3c(C)ccc3C)[nH]n2c(=O)c1Cl` belongs 2.92 µM.

`CC(Cc1c[nH]c2ccccc12)C(=O)NCc1ccco1` (stereo unspecified): the half-inhibitory concentration (IC50) was 33 µM. Next, `CCOC(=O)C1CCCN(C(=O)c2ccc(CNc3c(N4CCC(C)CC4)c(=O)c3=O)cc2)C1` (stereo unspecified): 31.4 µM; `CCc1ccc(NC(=O)N(CCN2CCOCC2)Cc2ccc3c(c2)CCCN3CC)cc1`: 88.1 µM. For the compound `Nc1ccc2c(O)cc(S(=O)(=O)O)cc2c1`, the IC50 is 9.44 µM.

With `O=C(N/N=C/c1ccc(O)c(O)c1O)/C(=C/c1ccc([N+](=O)[O-])cc1)NC(=O)c1ccccc1`, the IC50 was 0.87 µM. Next, `CC1=CC2(O)OCCN(CCO)C2=CC1=O` (stereo unspecified): 7.05 µM; `COc1ccc(C(=O)N/N=C/C23CC[C@@H](O)CC2(O)CC[C@@H]2[C@@H]3CCC3(C)C(C4=CC(=O)OC4)CCC23O)cc1` (stereo partly specified): 86.3 µM; `C=C(C)C(=O)Nc1cccc(C2=NOC3(C2)C[C@@H](C(N)=O)N(C(=O)c2cc([N+](=O)[O-])cc([N+](=O)[O-])c2)C3)c1` (stereo partly specified): 4.69 µM.

As for `COc1cc2c3c(c1OC)C1(C=CC(=O)C=C1)CC3N(C(=O)CCC(=O)O)CC2` (stereo unspecified), the concentration for half-maximal inhibition (IC50) was 13.3 µM. To `CC1=C(O)C(=O)C=C2C1=CC=C1C2(C)CCC2(C)C3CC(C)(C(=O)O)CCC3(C)CCC12C` (stereo unspecified) belongs 12.2 µM; to `CC(/C=N/n1c(-c2ccncc2)n[nH]c1=S)=C\c1ccco1`, 5.1 µM. For `O=C(O)c1cc(N2N=C(C(F)(F)F)/C(=C/C=C/c3ccco3)C2=O)ccc1Cl`, the IC50 was 1.04 µM. On to `O=C(CSc1nc2ccccc2n1CCc1ccccc1)c1ccc(O)c(O)c1`, for which the half-inhibitory concentration (IC50) is 2.14 µM. As for `Cc1ccnc(NS(=O)(=O)c2ccc(NC(=O)Cc3cccs3)cc2)n1`, the IC50 is 8.35 µM.

For the compound `CN(C)c1ccc(N2C(=O)CSC2=S)cc1`, the IC50 is 8.37 µM. For `O=C(Nc1ccc(F)cc1)C(c1ccccc1)N1CCN(S(=O)(=O)c2ccc3ccccc3c2)CC1` (stereo unspecified), the concentration for half-maximal inhibition (IC50) is 13.5 µM. For the compound `CSc1nnc(-c2ccco2)c(-c2ccco2)n1`, the IC50 is 1.49 µM.

For the compound `O=S(=O)(O)c1cccc2c(N=Nc3ccc(O)c4ncccc34)cccc12`, the half-maximal inhibitory concentration (IC50) was 13.6 µM. As to `CCN(CC)C(=O)c1ccc2c(c1)C1C(Cl)C(Sc3ccccc3[N+](=O)[O-])CC1C(C(=O)O)N2` (stereo unspecified), the IC50 is 13 µM. With `CN(C)c1ccc(O)c2c1CC1CC3[C@@H](N(C)C)C(=O)C(C(N)=O)=C(O)[C@]3(O)C(=O)C1=C2O` (stereo partly specified), the half-maximal inhibitory concentration (IC50) is 1.07 µM. Turning to `c1ccc(CSc2nnc(-c3ccco3)c(-c3ccco3)n2)cc1`, the IC50 is 6.93 µM. Next, `O=C(O)CCCCC1SCC2NC(=O)NC21` (stereo unspecified): 0.27 µM; `CC(=O)Nc1ccc(S(=O)(=O)NCCSCc2ccco2)cc1`: 15.3 µM. For `CCN(C(=O)CN1CCN(c2ccc(O)cc2)CC1)c1c(N)n(Cc2ccccc2)c(=O)[nH]c1=O`, the IC50 was 16.4 µM. Take `Cc1[nH]c2ccccc2c1C(=O)Cn1c(=O)oc2ccccc21`: the IC50 was 96.2 µM. Consider `Cc1cccc(NC(=O)CNC(=O)c2cccc(-n3cccc3)c2)c1C`, for which the 50% inhibitory concentration (IC50) was 12.2 µM. To `COc1cccc(CNC(=O)Cn2c(=O)oc3ccccc32)c1OC` belongs 85.7 µM; to `O=C(Cc1ncn[nH]1)NCCc1ccccc1`, 96.9 µM. Next, `COc1ccc(NS(=O)(=O)c2cccc(Cl)c2Cl)cc1S(=O)(=O)N1CCCCC1`: 76.1 µM. With `O=C1NC(=S)S/C1=C\C=C\c1ccc([N+](=O)[O-])o1`, the IC50 was 1.84 µM. As to `CCOc1cc(N2CCOCC2)c(OCC)cc1NC(=O)CSc1ncn[nH]1`, the half-maximal inhibitory concentration (IC50) was 11.9 µM. In the case of `Cc1cccc(-n2nc3c(c2NC(=O)c2ccc(Br)o2)CSC3)c1`, the IC50 was 63.6 µM. To `CC[n+]1c(/C=C2\C=C(C)CC(C)(C)C2)sc2ccccc21` belongs 57.9 µM. As for `Cc1ccn2cc(-c3nonc3C)cc2c1`, the IC50 is 22.5 µM.

On to `O=C(COc1ccc(Cl)cc1)N1CCN(S(=O)(=O)c2ccc(Cl)cc2)CC1`, for which the half-maximal inhibitory concentration (IC50) is 50.7 µM. To `COc1cc(C2Nc3ccccc3C(=O)N2c2ccccc2)ccc1O` (stereo unspecified) belongs 39.4 µM; to `Cc1ccc2c(c1)c1ccc3c(c1n2C)C(=O)C=CC3=O`, 3.94 µM; to `Cc1ccc(Nc2nc(C(=O)NCc3ccco3)cs2)cc1`, 78.2 µM. Next, `COc1ccc2c(c1)C(=O)c1ccccc1CO2`: 52.2 µM.

Turning to `O=C1CCC/C1=C/Nc1ccc2c(c1)OCO2`, the IC50 was 2.09 µM.

Turning to `NC(=O)C[C@@H]1N[C@]2(C(=O)Nc3ccccc32)[C@@H]2C(=O)N(c3cc(C(F)(F)F)ccc3Cl)C(=O)[C@H]12`, the IC50 was 55.5 µM.

In the case of `Clc1ccc2nc3ccccn3c2c1`, the IC50 was 98.3 µM.

In the case of `NC(CO)C(=O)NNCc1ccc(O)c(O)c1O` (stereo unspecified), the IC50 is 1.49 µM. To `CCCC(=O)Nc1ccc(Br)cn1` belongs 65.1 µM. Next, `O=C1C2CCCN2C(c2ccc(Cl)cc2)N1c1ccccn1` (stereo unspecified): 84.7 µM; `O=C(Nc1ccccc1N1CCCC1)c1ccc(Br)o1`: 46.2 µM; `O=C(CCCN1C(=O)/C(=C\c2ccco2)SC1=S)Nc1cccc2ccccc12`: 2.56 µM. To `NC(=O)C1CCN(C2=C(Cl)C(=O)c3ccccc3C2=O)CC1` belongs 2.5 µM.

Take `C=CCn1c(SCC(=O)c2cc(C)n(C(C)COC)c2C)nc2sc(C)c(C)c2c1=O` (stereo unspecified): the half-maximal inhibitory concentration (IC50) is 27.1 µM.

In the case of `O=C1NN(c2ccc(Cl)cc2)C(=O)/C1=C\c1ccc(-c2cccc(C(=O)O)c2)o1`, the IC50 is 5.76 µM. Next, `CSc1nc(N2CCOCC2)c2c3c(sc2n1)CCC3`: 42.1 µM; `COc1cc(OC)c2c(c1O)OC(c1ccccc1)CC2=O` (stereo unspecified): 4.82 µM. Regarding `O=C(c1ccccc1Br)N1CCN(c2ccccc2)CC1`, the concentration for half-maximal inhibition (IC50) is 38.7 µM. In the case of `CC1=CC(C)(C)Nc2ccc(OC(=O)CN3C(=O)c4cccc5cccc(c45)C3=O)cc21`, the IC50 was 1.99 µM. Next, `CCN1CCC(=NNC(=O)CC23CC4CC(CC(C4)C2)C3)CC1`: 97.5 µM. With `Cc1ccc(N(CC(=O)NCCSCc2ccco2)S(=O)(=O)c2ccc(F)cc2)cc1`, the concentration for half-maximal inhibition (IC50) was 10.9 µM.

As to `COC(=O)CSc1nnc(CNC(=O)Cc2ccccc2)n1-c1ccccc1OC`, the half-inhibitory concentration (IC50) was 77.7 µM. `C=CC1=C(C(=O)O)N2C(=O)C(NC(=O)Cc3ccccc3)C2SC1` (stereo unspecified): the half-maximal inhibitory concentration (IC50) was 11.5 µM. `CNc1ccc(Br)cc(C(=O)/C=C/c2ccc(Cl)cc2Cl)c1=O`: the IC50 is 9.23 µM. For `CCc1ccc2nc(N3CCN(C)CC3)c(C#N)cc2c1`, the half-inhibitory concentration (IC50) is 33.8 µM. To `N#C/C(=C/c1ccc(Br)o1)C(N)=S` belongs 3.87 µM; to `COc1ccc(NC(=O)CC2Nc3cccc4cccc(c34)NC2=O)cc1` (stereo unspecified), 1.21 µM. Next, `Nc1ccc(N2CCCCCC2)cc1`: 1.06 µM. To `COc1ccc(N2CCN(C(=O)c3ccc(C)c(Cl)c3)CC2)cc1` belongs 42.2 µM; to `CN(C)c1ccc(C=c2c3cc([N+](=O)[O-])ccc3n3c2cc(-c2ccccc2)[n+]3C)cc1`, 3.58 µM; to `CS(=O)(=O)N1CCCC(C(=O)NCCCN2CCC(Cc3ccccc3)CC2)C1` (stereo unspecified), 84.4 µM. Regarding `O=C(CSc1ccc(Cl)cc1)c1ccco1`, the IC50 was 10.8 µM.

On to `Cc1cc(C(=O)CSc2nnc(-c3ccco3)o2)c(C)n1Cc1ccco1`, for which the IC50 is 1.97 µM. To `CSc1ccc(/C=N/Nc2cccc(C(=O)O)c2)cc1` belongs 11.2 µM; to `Cc1cc(C(=O)O)ccc1-n1c(C)ccc1C`, 5.16 µM.

For the compound `O=C(NN1C(=O)/C(=C/C=C/c2ccco2)SC1=S)c1ccncc1`, the IC50 was 2.37 µM. With `Cc1cc(-c2cc(-c3ccc(Cl)cc3)nc(N)c2C#N)co1`, the IC50 is 12.4 µM. Next, `O=c1[nH]c2ccccc2n2c(-c3ccccc3)nnc12`: 15.5 µM.

For the compound `CC(=O)NC1=NC(=O)/C(=C/c2cc(C)n(-c3cccc(C(=O)O)c3)c2C)S1`, the half-inhibitory concentration (IC50) was 7.28 µM. To `O=C(Nc1cc(Cl)cc(Cl)c1)c1coc(=O)c(Br)c1` belongs 19.1 µM; to `CNc1ccccc(C(=O)/C=C/c2ccccc2OC)c1=O`, 3.9 µM.

As for `COC(=O)C1=C(O)/C(=C\c2ccc(CNC(=O)C(=O)Nc3ccc(C)cc3)o2)N=C1C`, the IC50 is 24.1 µM. Next, `Cc1cc(/C=N/Nc2ccc([N+](=O)[O-])cn2)c(C)n1-c1ccc(C(=O)O)cc1`: 3.25 µM; `Cc1cnnc2ccc3c(no[n+]3[O-])c12`: 4.71 µM. To `Cc1nc2cc(NC(=O)Nc3ccc(N4CCOCC4)cc3)ccc2n1C` belongs 99.2 µM; to `Cc1ccc(NC(=O)c2cc(-c3ccc(C)o3)nc3ccccc23)nc1`, 33.6 µM; to `Cc1cc(C(=O)Nc2sc3c(c2C#N)CCCCC3)cs1`, 95.9 µM.

Turning to `O=C(c1cc(COc2cccc3cccnc23)on1)N1CCC[C@H]1CO`, the half-inhibitory concentration (IC50) is 88.7 µM.

As for `Cn1nnnc1SCC(=O)NCc1ccco1`, the concentration for half-maximal inhibition (IC50) is 42.8 µM. Next, `COC(=O)c1ccc(C(=O)OC)c(NC(=O)Cc2cccs2)c1`: 4.22 µM; `O=C(C1CCCO1)N1CCC2(CC1)OCCO2` (stereo unspecified): 1.39 µM. Consider `COC(=O)Cn1ncn2c(cc3oc(C)cc32)c1=O`, for which the half-inhibitory concentration (IC50) was 71.6 µM. With `NC(=O)Cn1c(=O)n(Cc2ccco2)c(=O)c2c3c(sc21)CCCCC3`, the IC50 was 3.8 µM.
